Biological target: CXCR7 (Homo sapiens (Human), UniProt P25106)
Experiment: PathHunter CHO-K1 CXCR7 β-arrestin assay (agonistic activity)
Type: cell-based
Details: β-arrestin recruitment in PathHunter CHO-K1 CXCR7 β-arrestin cells, 90 minutes at 37° C., geometric mean values
Method: The CXCI12 receptor and CXCR7 agonistic activities of the compounds of formula (I) are determined in accordance with the following experimental method.
The assay is using the PathHunter™ CHO-K1 CXCR7 β-arrestin cell line from DiscoverX. The system is based on the Enzyme Fragment Complementation Technology. Two complementing fragments of the β-galactosidase enzyme are expressed within stably transfected cells. The larger portion of β-gal, termed EA for Enzyme Acceptor, is fused to the C-terminus of b-arrestin 2. The smaller fragment, termed ProLink™ tag, is fused to CXCR7 at the C-terminus. Upon activation, b-arrestin is recruited which forces the interaction of ProLink and EA, allowing complementation of the two fragments of b-gal and the formation of a functional enzyme which is capable of hydrolysing the substrate and generating a chemiluminescent signal.
CHO-K1 CXCR7 β-arrestin cells are detached from culture dishes with a cell dissociation buffer (Invitrogen, #13151-014) and collected in growing medium (F12 HAMS 90% (v/v)/FCS 10% (v/v), Penicillin/streptomycin 1% (v/v)). 5000 cells per well (in 20 μl) are seeded in a 384 well plate (white-walled, clear bottom; BD Falcon #353274). The plate is incubated at 37° C./5% CO2 for 24 hours. Medium is then replaced by 20 μl OPTIMEM (Invitrogen #31985) for 3 to 4 hours. Test compounds are dissolved at 10 mM in DMSO and serially diluted in DMSO to 200× of the final concentration for dose response curves. Compounds are then diluted 1:33.3 in HBSS1X. 5 μl/well of HBSS1X/20 mM HEPES/0.2% BSA are added to the assay plate followed by addition of 5 μl/well of diluted compounds. CXCL12 (Peprotech #300-28A) may be used as a reference agonist. The plate is incubated for 90 minutes at 37° C. 12 μl of detection reagent (Path Hunter Detection Kit, DiscoveRx, #93-0001) is transferred to the assay plate and to the plate is incubated for 1 hour at room temperature. Luminescent signal is read in a microplate reader (FLUOstar Optima, bmg). The calculated EC50 values may fluctuate depending on the daily cellular assay performance. Fluctuations of this kind are known to those skilled in the art. Average EC50 values from several measurements are given as geometric mean values.

CXCR7, sequence (P25106 whole entry): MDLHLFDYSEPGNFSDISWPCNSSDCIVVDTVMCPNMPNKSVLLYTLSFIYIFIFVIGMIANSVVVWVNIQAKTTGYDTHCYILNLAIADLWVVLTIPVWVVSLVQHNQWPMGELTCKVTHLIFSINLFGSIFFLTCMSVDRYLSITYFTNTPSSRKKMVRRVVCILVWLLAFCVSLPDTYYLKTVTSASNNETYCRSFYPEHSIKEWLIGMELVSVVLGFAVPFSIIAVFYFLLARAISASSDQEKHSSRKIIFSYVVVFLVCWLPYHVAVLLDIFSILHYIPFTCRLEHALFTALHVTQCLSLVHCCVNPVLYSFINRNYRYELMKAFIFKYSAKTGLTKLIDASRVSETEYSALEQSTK
CXCR7, sequence (P32121 whole entry partner): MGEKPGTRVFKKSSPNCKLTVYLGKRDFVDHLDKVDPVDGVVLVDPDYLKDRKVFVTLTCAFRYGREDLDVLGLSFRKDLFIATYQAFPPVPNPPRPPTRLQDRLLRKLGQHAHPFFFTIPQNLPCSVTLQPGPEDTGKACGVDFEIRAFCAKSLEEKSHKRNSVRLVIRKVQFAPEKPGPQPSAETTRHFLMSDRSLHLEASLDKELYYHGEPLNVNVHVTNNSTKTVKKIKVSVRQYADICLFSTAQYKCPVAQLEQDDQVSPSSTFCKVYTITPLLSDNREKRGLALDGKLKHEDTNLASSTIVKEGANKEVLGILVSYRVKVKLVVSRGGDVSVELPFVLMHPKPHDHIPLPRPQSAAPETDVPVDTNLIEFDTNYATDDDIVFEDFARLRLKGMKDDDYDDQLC

Q: With `CC(C)N(CCN(Cc1ccccc1C(F)(F)F)C(=O)CNc1cccc2c1N(C)CCN(CC1CC1)C2)C(=O)OC(C)(C)C` [Example 50, {2-[[2-(4-Cyclopropylmethyl-1-methyl-2,3,4,5-tetrahydro-1H-benzo[e][1,4]diazepin-9-ylamino)-acetyl]-(2-trifluoromethyl-benzyl)-amino]-ethyl}-isopropyl-carbamic acid tert-butyl ester] as the molecule, how does the EC50 read?
A: 340 nM

Q: `CN1CCN(CC2CC2)Cc2cccc(NCC(=O)N(CCN3CCCC3)Cc3ncccc3C(F)(F)F)c21` [Example 51, 2-(4-Cyclopropylmethyl-1-methyl-2,3,4,5-tetrahydro-1H-benzo[e][1,4]diazepin-9-ylamino)-N-(2-pyrrolidin-1-yl-ethyl)-N-(3-trifluoromethyl-pyridin-2-ylmethyl)-acetamide] was tested. Which EC50 did it give?
A: 1 nM

Q: With `CC(C)NCCN(Cc1ccccc1C(F)(F)F)C(=O)CNc1cccc2c1N(C)CCN(CC1CC1)C2` [Example 52, 2-(4-Cyclopropylmethyl-1-methyl-2,3,4,5-tetrahydro-1H-benzo[e][1,4]diazepin-9-ylamino)-N-(2-isopropylamino-ethyl)-N-(2-trifluoromethyl-benzyl)-acetamide] as the molecule, how does the EC50 read?
A: 1 nM

Q: With `CCN1CCOc2c(NCC(=O)N(CCNC(C)C)Cc3ccccc3C(F)(F)F)cccc2C1=O` [Example 56, 2-(4-Ethyl-5-oxo-2,3,4,5-tetrahydro-benzo[f][1,4]oxazepin-9-ylamino)-N-(2-isopropylamino-ethyl)-N-(2-trifluoromethyl-benzyl)-acetamide] as the molecule, how does the EC50 read?
A: 16 nM

Q: Which EC50 does the source give for `CCN1CCOc2c(NCC(=O)N(CCN3CCCC3)Cc3ncccc3C(F)(F)F)cccc2C1=O` [Example 57, 2-(4-Ethyl-5-oxo-2,3,4,5-tetrahydro-benzo[f][1,4]oxazepin-9-ylamino)-N-(2-pyrrolidin-1-yl-ethyl)-N-(3-trifluoromethyl-pyridin-2-ylmethyl)-acetamide] here?
A: 60 nM

Q: How did the EC50 turn out when `CCN1CCOc2c(NCC(=O)N(CCN(C)C)Cc3ncccc3C(F)(F)F)cccc2C1=O` [Example 58, N-(2-Dimethylamino-ethyl)-2-(4-ethyl-5-oxo-2,3,4,5-tetrahydro-benzo[f][1,4]oxazepin-9-ylamino)-N-(3-trifluoromethyl-pyridin-2-ylmethyl)-acetamide] was run?
A: 74 nM

Q: For `CCN1CCOc2c(NCC(=O)N(CCN3CCCC3)Cc3ncccc3Cl)cccc2C1=O` [Example 59, N-(3-Chloro-pyridin-2-ylmethyl)-2-(4-ethyl-5-oxo-2,3,4,5-tetrahydro-benzo[f][1,4]oxazepin-9-ylamino)-N-(2-pyrrolidin-1-yl-ethyl)-acetamide], which EC50 is on record?
A: 260 nM

Q: How did the EC50 turn out when `CCN1CCOc2c(NCC(=O)N(CCN(C)C)Cc3ncccc3Cl)cccc2C1=O` [Example 60, N-(3-Chloro-pyridin-2-ylmethyl)-N-(2-dimethylamino-ethyl)-2-(4-ethyl-5-oxo-2,3,4,5-tetrahydro-benzo[f][1,4]oxazepin-9-ylamino)-acetamide] was run?
A: 260 nM

Q: For `CN(C)CCN(Cc1ccccc1C(F)(F)F)C(=O)CNc1cccc2c1OCCN(CC1CC1)C2=O` [Example 61, 2-(4-Cyclopropylmethyl-5-oxo-2,3,4,5-tetrahydro-benzo[f][1,4]oxazepin-9-ylamino)-N-(2-dimethylamino-ethyl)-N-(2-trifluoromethyl-benzyl)-acetamide], which EC50 is on record?
A: 9 nM

Q: With `CC(C)NCCN(Cc1ccccc1C(F)(F)F)C(=O)CNc1cccc2c1OCCN(CC1CC1)C2=O` [Example 62, 2-(4-Cyclopropylmethyl-5-oxo-2,3,4,5-tetrahydro-benzo[f][1,4]oxazepin-9-ylamino)-N-(2-isopropylamino-ethyl)-N-(2-trifluoromethyl-benzyl)-acetamide] as the molecule, how does the EC50 read?
A: 5 nM

Q: How did the EC50 turn out when `CC(C)(C)NCCN(Cc1ccccc1C(F)(F)F)C(=O)CNc1cccc2c1OCCN(CC1CC1)C2=O` [Example 63, N-(2-tert-Butylamino-ethyl)-2-(4-cyclopropylmethyl-5-oxo-2,3,4,5-tetrahydro-benzo[f][1,4]oxazepin-9-ylamino)-N-(2-trifluoromethyl-benzyl)-acetamide] was run?
A: 2 nM

Q: With `O=C(CNc1cccc2c1OCCN(CC1CC1)C2=O)N(CCN1CCCC1)Cc1ncccc1C(F)(F)F` [Example 64, 2-(4-Cyclopropylmethyl-5-oxo-2,3,4,5-tetrahydro-benzo[f][1,4]oxazepin-9-ylamino)-N-(2-pyrrolidin-1-yl-ethyl)-N-(3-trifluoromethyl-pyridin-2-ylmethyl)-acetamide] as the molecule, how does the EC50 read?
A: 7 nM

Q: Which EC50 does the source give for `O=C(CNc1cccc2c1OCC(=O)N(CC1CC1)C2)N(CCN1CCCC1)Cc1ncccc1C(F)(F)F` [Example 65, 2-(4-cyclopropylmethyl-3-oxo-2,3,4,5-tetrahydro-benzo[f][1,4]oxazepin-9-ylamino)-N-(2-pyrrolidin-1-yl-ethyl)-N-(3-trifluoromethyl-pyridin-2-ylmethyl)-acetamide] here?
A: 18 nM

Q: `CC(C)(C)NCCN(Cc1ccccc1C(F)(F)F)C(=O)CNc1cccc2c1OCC(=O)N(CC1CC1)C2` [Example 66, N-(2-tert-butylamino-ethyl)-2-(4-cyclopropylmethyl-3-oxo-2,3,4,5-tetrahydro-benzo[f][1,4]oxazepin-9-ylamino)-N-(2-trifluoromethyl-benzyl)-acetamide] was tested. Which EC50 did it give?
A: 18 nM

Q: With `CN(C)CCN(Cc1ccccc1C(F)(F)F)C(=O)CNc1cccc2c1OCC(=O)N(CC1CC1)C2` [Example 67, 2-(4-Cyclopropylmethyl-3-oxo-2,3,4,5-tetrahydro-benzo[f][1,4]oxazepin-9-ylamino)-N-(2-dimethylamino-ethyl)-N-(2-trifluoromethyl-benzyl)-acetamide] as the molecule, how does the EC50 read?
A: 37 nM

Q: With `CC(C)NCCN(Cc1ccccc1C(F)(F)F)C(=O)CNc1cccc2c1OCC(=O)N(CC1CC1)C2` [Example 68, 2-(4-Cyclopropylmethyl-3-oxo-2,3,4,5-tetrahydro-benzo[f][1,4]oxazepin-9-ylamino)-N-(2-isopropylamino-ethyl)-N-(2-trifluoromethyl-benzyl)-acetamide] as the molecule, how does the EC50 read?
A: 15 nM

Q: Which EC50 does the source give for `CCN1CCOc2c(cccc2NCC(=O)N(CCN(C(=O)OC(C)(C)C)C(C)C)Cc2ccccc2C(F)(F)F)C1` [Example 69, {2-[[2-(4-Ethyl-2,3,4,5-tetrahydro-benzo[f][1,4]oxazepin-9-ylamino)-acetyl]-(2-trifluoromethyl-benzyl)-amino]-ethyl}-isopropyl-carbamic acid tert-butyl ester] here?
A: 430 nM

Q: `CCN1CCOc2c(cccc2NCC(=O)N(CCNC(C)(C)C)Cc2ccccc2C(F)(F)F)C1` [Example 70, N-(2-tert-Butylamino-ethyl)-2-(4-ethyl-2,3,4,5-tetrahydro-benzo[f][1,4]oxazepin-9-ylamino)-N-(2-trifluoromethyl-benzyl)-acetamide] was tested. Which EC50 did it give?
A: 4 nM

Q: For `CCN1CCOc2c(cccc2NCC(=O)N(CCNC(C)C)Cc2ccccc2C(F)(F)F)C1` [Example 71, 2-(4-Ethyl-2,3,4,5-tetrahydro-benzo[f][1,4]oxazepin-9-ylamino)-N-(2-isopropylamino-ethyl)-N-(2-trifluoromethyl-benzyl)-acetamide], which EC50 is on record?
A: 4 nM

Q: Which EC50 does the source give for `CCN1CCOc2c(cccc2NCC(=O)N(CCN(C)C)Cc2ncccc2C(F)(F)F)C1` [Example 72, N-(2-Dimethylamino-ethyl)-2-(4-ethyl-2,3,4,5-tetrahydro-benzo[f][1,4]oxazepin-9-ylamino)-N-(3-trifluoromethyl-pyridin-2-ylmethyl)-acetamide] here?
A: 6 nM

— patent US10202368B2, “CXCR7 receptor modulators” (IDORSIA PHARMACEUTICALS LTD, priority 2014, dated 2019)
